Among the data in patent publication US10556898B2, “Indazolyl-1,2,4-thiadiazolamines and related compounds for inhibition of Rho-associated protein kinase and the treatment of disease” (Lycera Corporation, priority 2016, dated 2020) are IC50 values, retold here.

For orientation: IC50 means the concentration needed to halve the response being measured.

Like-named read-outs stand apart in the source and are kept apart here.

Assay [1] deals with T1, GST-tagged human ROCK1 catalytic domain 1-477 (Homo sapiens, UniProt Q13464).
T1 construct: human ROCK1 catalytic domain 1-477 from Carna Biosciences (cat #01-109); purchased Carna Biosciences 01-109; host or cells: baculovirus expression system
T1 sequence (Q13464 1-477): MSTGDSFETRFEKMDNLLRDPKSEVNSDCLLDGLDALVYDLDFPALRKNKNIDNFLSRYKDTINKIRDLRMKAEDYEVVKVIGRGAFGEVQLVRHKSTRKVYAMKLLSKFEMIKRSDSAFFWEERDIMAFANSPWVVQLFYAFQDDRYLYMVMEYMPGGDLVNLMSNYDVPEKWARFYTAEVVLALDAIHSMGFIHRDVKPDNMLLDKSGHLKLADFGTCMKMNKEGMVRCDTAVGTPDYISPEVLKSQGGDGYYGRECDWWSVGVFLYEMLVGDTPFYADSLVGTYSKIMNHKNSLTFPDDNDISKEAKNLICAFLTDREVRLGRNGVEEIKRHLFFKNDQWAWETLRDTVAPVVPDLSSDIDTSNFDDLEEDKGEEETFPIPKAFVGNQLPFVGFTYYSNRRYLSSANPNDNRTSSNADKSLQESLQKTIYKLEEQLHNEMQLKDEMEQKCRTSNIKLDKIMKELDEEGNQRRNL
In words: Isolated Enzyme Assay, ROCK1 (LANCE Ultra ULight-CREBtide FRET). As to conditions: 30 μM highest concentration tested, read-out: Results from Isolated Enzyme Assay IC50 (μM) ROCK1. The assay is classed as biochemical. The method, then: (§1) Exemplary compounds were tested for ability to inhibit Rho-associated protein kinase isoform 1 (ROCK1) and Rho-associated protein kinase isoform 2 (ROCK2). Assay procedures and results are described below.
(§2) Part I—Procedure for Determining ROCK Inhibition Ability of Test Compounds Using an Isolated Enzyme Assay
(§3) Protein constructs were purified from a baculovirus expression system. The peptide substrate was fluorescent LANCE® Ultra ULight-CREBtide: […] (PerkinElmer, # TRF0107-D). Kinase reactions were carried out in a 10 μL volume in 384-well plates: 50 nM ULight-CREBtide substrate, 2 nM constitutively active ROCK1 or ROCK2 kinase, and test compound in DMSO (or DMSO only for controls) were diluted into assay buffer containing 50 mM Tris-HCl (pH=7.5), 10 mM MgCl2, 1 mM EGTA, 0.01% Tween-20, and 2 mM DTT such that the final concentration of DMSO was 0.5%. After a 90 minute incubation at room temperature on a shaker table, the kinase reaction was stopped by addition of 10 mM EDTA, and phosphorylation of the substrate was detected by adding 1 nM LANCE® Ultra Europium-anti-phospho-CREB (ser133) antibody (PerkinElmer, # TRF0200-D) and incubating for 60 minutes on a shaker at room temperature. The fluorescence resonance energy transfer (FRET) signals were read and analyzed on an Envision™ 2103 Multilabel Reader (Perkin Elmer). The concentration of test compound required to inhibit substrate phosphorylation by 50% (the IC50) was calculated by non-linear regression using GraphPad PRIZM.
For orientation: Time-resolved FRET reads energy transfer from a long-lived donor to a nearby acceptor.

Assay [2] concerns the target T2, GST-tagged human ROCK2 catalytic domain 1-553 (Homo sapiens, UniProt O75116).
T2 construct: GST-tagged human ROCK2 catalytic domain 1-553 from Carna Biosciences (Cat #01-110); purchased Carna Biosciences 01-110; host or cells: baculovirus expression system
Briefly: Isolated Enzyme Assay, ROCK2 (LANCE Ultra ULight-CREBtide FRET). The format is biochemical. The settings on record: 30 μM highest concentration tested, read-out: Results from Isolated Enzyme Assay IC50 (μM) ROCK2. The method, then: as §1, §2, §3

The next assay addresses T3, ROCK2 (Homo sapiens, UniProt O75116).
T3 construct: endogenous in cells; host or cells: HAP1 knockout cells
Briefly: Cell-Based Assay, ROCK2 (HAP1 knockout cells, phospho-MYPT1 Thr853 ELISA). The settings on record: read-out: Results from Cell-Based Assay IC50 (μM) ROCK2. Here is the method: Part II—Procedure for Determining ROCK Inhibition Ability of Test Compounds Using a Cell-Base Assay
The Cell-Based Assay for determining ROCK inhibition ability of test compounds utilized a genetically modified HAP1 cell line engineered to eliminate expression of either ROCK1 or ROCK2. In the procedure, HAP1 knockout cells are grown in Iscove's Modified Dulbecco's Medium that is additionally supplemented with 10% fetal bovine and 1x antibiotic-antimycotic mixture. Cells are plated in 96 well tissue culture plates at 1×10^5 cells/well (100 μL, of cells at 1×10^6/mL). Test compounds are solubilized in DMSO and diluted into the same media used to grow the cells. A 100 μL, aliquot of each compound dilution in media is added to each well containing the HAP1 cells and incubated at 37° C. for 30 minutes. Following compound incubation, the cells are pelleted by centrifugation at 1800 rpm for 5 minutes at 4° C. Media is removed from the cell pellet and the cells lysed and de-salted. An 80 μL, aliquot of each cell lysate is added to a single well of a 96-well high binding ELISA plate which has been pre-coated with a MYPT1 capture antibody and incubated at 4° C. overnight. The following day the ELISA plate is washed 4× with 0.05% Tween-20 in PBS. After washing, an anti-phospho-MYPT1 (Thr853) antibody is added and allowed to bind for 1 hour at room temperature. The wash step is repeated, and then an anti-rabbit HRP detection antibody is added and allowed to incubate at room temperature for 1 hour. The wash step is then repeated and 100 μL/well 1-Step™ Ultra TMB substrate is added to the ELISA plate and allowed to develop for approximately 5 minutes. The reaction is stopped by addition of H2SO4. Absorbance is read at 450 OD. Data is analyzed using GraphPad Prism software to calculate the 50% inhibitory concentration of test compound (IC50).
Background: An ELISA detects its analyte on a solid surface through an enzyme-linked reagent.

Where [3] appears, read: phospho-MYPT1, 30 μM highest concentration tested.

T3 sequence (O75116 whole entry): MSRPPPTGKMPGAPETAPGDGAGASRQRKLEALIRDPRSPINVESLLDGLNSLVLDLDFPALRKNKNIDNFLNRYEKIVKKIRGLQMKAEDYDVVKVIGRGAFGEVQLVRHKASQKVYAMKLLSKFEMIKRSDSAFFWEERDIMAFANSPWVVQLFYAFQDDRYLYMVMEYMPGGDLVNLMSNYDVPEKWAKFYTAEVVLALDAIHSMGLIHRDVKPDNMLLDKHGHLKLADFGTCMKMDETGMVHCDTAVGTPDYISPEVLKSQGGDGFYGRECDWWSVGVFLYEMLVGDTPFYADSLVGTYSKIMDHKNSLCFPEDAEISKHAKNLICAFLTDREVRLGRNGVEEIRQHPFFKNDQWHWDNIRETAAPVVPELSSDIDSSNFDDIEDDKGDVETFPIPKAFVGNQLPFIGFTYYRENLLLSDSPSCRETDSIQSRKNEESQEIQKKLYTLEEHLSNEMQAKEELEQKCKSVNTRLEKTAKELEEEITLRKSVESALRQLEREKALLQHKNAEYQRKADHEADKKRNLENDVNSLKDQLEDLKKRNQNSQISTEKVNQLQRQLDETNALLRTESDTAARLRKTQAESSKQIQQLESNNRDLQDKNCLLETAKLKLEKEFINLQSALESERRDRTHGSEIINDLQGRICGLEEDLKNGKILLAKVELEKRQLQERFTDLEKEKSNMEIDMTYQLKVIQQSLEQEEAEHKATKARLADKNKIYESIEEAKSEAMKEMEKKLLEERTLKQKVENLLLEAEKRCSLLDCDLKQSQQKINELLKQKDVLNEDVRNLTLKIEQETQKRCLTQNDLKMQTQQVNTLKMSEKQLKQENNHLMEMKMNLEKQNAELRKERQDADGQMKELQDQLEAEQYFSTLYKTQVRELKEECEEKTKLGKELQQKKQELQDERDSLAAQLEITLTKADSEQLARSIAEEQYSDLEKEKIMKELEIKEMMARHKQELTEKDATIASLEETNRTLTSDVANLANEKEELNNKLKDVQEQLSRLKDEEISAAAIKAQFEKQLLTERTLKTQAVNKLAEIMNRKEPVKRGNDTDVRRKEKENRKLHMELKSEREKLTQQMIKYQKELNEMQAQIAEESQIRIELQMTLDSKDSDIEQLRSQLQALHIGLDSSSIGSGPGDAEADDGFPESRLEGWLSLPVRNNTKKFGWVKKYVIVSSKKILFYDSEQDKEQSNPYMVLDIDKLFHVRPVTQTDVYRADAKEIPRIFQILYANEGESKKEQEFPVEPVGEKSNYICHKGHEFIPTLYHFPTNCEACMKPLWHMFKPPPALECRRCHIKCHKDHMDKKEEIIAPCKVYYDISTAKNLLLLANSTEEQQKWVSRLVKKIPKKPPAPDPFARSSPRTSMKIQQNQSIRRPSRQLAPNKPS
T2 sequence (O75116 1-553): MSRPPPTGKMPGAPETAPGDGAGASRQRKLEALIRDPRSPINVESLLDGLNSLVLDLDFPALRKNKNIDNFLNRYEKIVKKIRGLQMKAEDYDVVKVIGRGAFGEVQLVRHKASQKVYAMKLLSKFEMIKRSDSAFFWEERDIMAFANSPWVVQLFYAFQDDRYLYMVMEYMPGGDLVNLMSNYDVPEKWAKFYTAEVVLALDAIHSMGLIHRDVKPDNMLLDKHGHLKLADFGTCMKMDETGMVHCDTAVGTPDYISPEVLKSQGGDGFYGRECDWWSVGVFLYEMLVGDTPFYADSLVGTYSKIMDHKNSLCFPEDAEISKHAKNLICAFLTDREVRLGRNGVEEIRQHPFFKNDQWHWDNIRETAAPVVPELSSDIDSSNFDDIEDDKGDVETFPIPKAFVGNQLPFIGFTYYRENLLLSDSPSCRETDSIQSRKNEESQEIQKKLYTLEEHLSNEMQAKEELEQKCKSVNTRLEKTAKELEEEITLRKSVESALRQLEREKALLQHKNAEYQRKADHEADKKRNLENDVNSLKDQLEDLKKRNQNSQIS

Take `Cn1cncc1C(=O)Nc1cccc(-c2nsc(Nc3ccc4[nH]ncc4c3Cl)n2)c1` [Compound A-23]: the IC50 (in assay [1] (isolated enzyme); in assay [2] (isolated enzyme); on ROCK2 (setting [3])) was below 1 µM throughout.
Regarding `O=C(Nc1cccc(-c2nsc(Nc3ccc4[nH]ncc4c3Cl)n2)c1)c1cocn1` [Compound A-21], the IC50 (in assay [1] (isolated enzyme); in assay [2] (isolated enzyme); on ROCK2 (setting [3])) was below 1 µM each time.
On to `Cc1cc(NC(=O)c2cncs2)cc(-c2nsc(Nc3ccc4[nH]ncc4c3Cl)n2)n1` [IV-20], for which the values for the IC50 (in assay [1] (isolated enzyme assay); in assay [2] (isolated enzyme assay); on ROCK2 (numeric bound)) were below 1 µM, below 1 µM and above 10 µM, respectively.
`O=C(Nc1cccc(-c2nsc(Nc3ccc4[nH]ncc4c3Cl)n2)c1)c1cnco1` [Compound A-17]: the IC50 (in assay [1] (isolated enzyme); in assay [2] (isolated enzyme); at ROCK2 (setting [3])) was below 1 µM in each case.
As for `Cc1cc(C(=O)Nc2cccc(-c3nsc(Nc4ccc5[nH]ncc5c4Cl)n3)c2)on1` [Compound A-18], the IC50 (in assay [1] (isolated enzyme); in assay [2] (isolated enzyme); on ROCK2 (setting [3])) was below 1 µM each time.
For `Cc1cc(-c2nc(C)co2)cc(-c2nsc(Nc3ccc4[nH]ncc4c3Cl)n2)n1` [IV-105], the IC50 in assay [1] (isolated enzyme assay) is above 30 µM; in assay [2] (isolated enzyme assay), above 30 µM; at ROCK2 (numeric bound), above 10 µM.
Regarding `CC(=O)Nc1cc(-c2nsc(Nc3ccc4[nH]ncc4c3Cl)n2)cn(C)c1=O` [IV-45], the IC50 in assay [1] (isolated enzyme assay) was below 1 µM; in assay [2] (isolated enzyme assay), below 1 µM; on ROCK2 (numeric bound), above 10 µM.
For the compound `Cc1ncc(-c2nsc(Nc3ccc4[nH]ncc4c3Cl)n2)cc1NC(=O)c1ccnn1C` [IV-69], the IC50 in assay [1] (isolated enzyme assay) is 1 to 15 µM; in assay [2] (isolated enzyme assay) it was below 1 µM; at ROCK2 (numeric bound), above 10 µM.
With `CC1(C)CN(c2cccc(-c3nsc(Nc4ccc5[nH]ncc5c4C#N)n3)c2)C(=O)O1` [IV-34], the IC50 in assay [1] (isolated enzyme assay) is below 1 µM; in assay [2] (isolated enzyme assay), below 1 µM; on ROCK2 (class symbols) it was 1 to 15 µM.
With `Cn1cnc(C(=O)Nc2cc(-c3nsc(Nc4ccc5[nH]ncc5c4Cl)n3)ccn2)c1` [IV-29], the IC50 was above 30 µM in assay [1] (isolated enzyme assay), below 1 µM in assay [2] (isolated enzyme assay) and above 10 µM on ROCK2 (numeric bound).
Take `Cn1cc(CC(=O)Nc2cccc(-c3nsc(Nc4ccc5[nH]ncc5c4Cl)n3)c2)cn1` [Compound A-20]: the IC50 (in assay [1] (isolated enzyme); in assay [2] (isolated enzyme); on ROCK2 (setting [3])) was below 1 µM each time.
Regarding `Cn1ccnc1-c1cccc(-c2nsc(Nc3ccc4[nH]ncc4c3Cl)n2)c1` [IV-88], the IC50 in assay [1] (isolated enzyme assay) is below 1 µM; in assay [2] (isolated enzyme assay) it was below 1 µM; on ROCK2 (class symbols), 1 to 15 µM.
With `COc1cccc(C(=O)Nc2cc(C)nc(-c3nsc(Nc4ccc5[nH]ncc5c4Cl)n3)c2)c1` [IV-44], the IC50 is above 30 µM in assay [1] (isolated enzyme assay), above 30 µM in assay [2] (isolated enzyme assay) and 1 to 15 µM at ROCK2 (class symbols).
For the compound `O=C(NC1CCC1)c1cc(-c2nsc(Nc3ccc4[nH]ncc4c3Cl)n2)ccc1F` [IV-30], the IC50 (in assay [1] (isolated enzyme assay); in assay [2] (isolated enzyme assay); on ROCK2 (class symbols)) was below 1 µM throughout.
For the compound `O=C(Nc1cc(-c2nsc(Nc3ccc4[nH]ncc4c3Cl)n2)ccn1)N1CCOCC1` [Compound A-19], the IC50 (in assay [1] (isolated enzyme); in assay [2] (isolated enzyme); on ROCK2 (setting [3])) was below 1 µM throughout.
On to `Cc1cc(C(=O)Nc2cccc(-c3nsc(Nc4ccc5[nH]ncc5c4Cl)n3)c2)n(C)n1` [Compound A-12], for which the IC50 (in assay [1] (isolated enzyme); in assay [2] (isolated enzyme); at ROCK2 (setting [3])) was below 1 µM in each case.
Regarding `Cc1cn2cccc(-c3nsc(Nc4ccc5[nH]ncc5c4Cl)n3)c2n1` [IV-89], the IC50 in assay [1] (isolated enzyme assay) is below 1 µM; in assay [2] (isolated enzyme assay), below 1 µM; on ROCK2 (numeric bound) it was above 10 µM.
Consider `Cc1coc(-c2cc(CO)cc(-c3nsc(Nc4ccc5[nH]ncc5c4Cl)n3)c2)n1` [IV-68], for which the IC50 (in assay [1] (isolated enzyme assay); in assay [2] (isolated enzyme assay); on ROCK2 (class symbols)) was below 1 µM in each case.
As for `COc1cccc(C(=O)Nc2cncc(-c3nsc(Nc4ccc5[nH]ncc5c4Cl)n3)c2)c1` [IV-101], the figures for the IC50 (in assay [1] (isolated enzyme assay); in assay [2] (isolated enzyme assay); on ROCK2 (numeric bound)) were above 30 µM, above 30 µM and above 10 µM, respectively.
Turning to `O=C(Nc1cccc(-c2nsc(Nc3ccc4[nH]ncc4c3Cl)n2)c1)c1cnc[nH]1` [Compound A-14], the IC50 (in assay [1] (isolated enzyme); in assay [2] (isolated enzyme); on ROCK2 (setting [3])) was below 1 µM throughout.
`Cc1coc(-c2cccc(-c3nsc(Nc4ccc5[nH]ncc5c4Cl)n3)c2)n1` [Compound A-10]: the IC50 (in assay [1] (isolated enzyme); in assay [2] (isolated enzyme); on ROCK2 (setting [3])) was below 1 µM in each case.
On to `COc1ncc(C(=O)Nc2cc(-c3nsc(Nc4ccc5[nH]ncc5c4Cl)n3)ccn2)cn1` [IV-27], for which the results for the IC50 (in assay [1] (isolated enzyme assay); in assay [2] (isolated enzyme assay); at ROCK2 (numeric bound)) were above 30 µM, below 1 µM and above 10 µM, respectively.
For `Cc1cc(NC(=O)c2cnco2)cc(-c2nsc(Nc3ccc4[nH]ncc4c3Cl)n2)n1` [IV-25] the same measures were below 1 µM, below 1 µM and above 10 µM.
Take `Cn1cc(-c2nsc(Nc3ccc4[nH]ncc4c3Cl)n2)cc(NC(=O)c2ccccc2)c1=O` [IV-39]: the IC50 in assay [1] (isolated enzyme assay) is 1 to 15 µM; in assay [2] (isolated enzyme assay), below 1 µM; at ROCK2 (class symbols), below 1 µM.
As for `Cn1nccc1C(=O)Nc1cccc(-c2nsc(Nc3ccc4[nH]ncc4c3C#N)n2)c1` [IV-33], the IC50 was below 1 µM in assay [1] (isolated enzyme assay), below 1 µM in assay [2] (isolated enzyme assay) and above 10 µM at ROCK2 (numeric bound).
`O=C(Nc1cc(-c2nsc(Nc3ccc4[nH]ncc4c3Cl)n2)ccn1)c1cnco1` [IV-28]: the IC50 was above 30 µM in assay [1] (isolated enzyme assay), below 1 µM in assay [2] (isolated enzyme assay) and above 10 µM at ROCK2 (numeric bound).
For `COc1ncc(-c2nsc(Nc3ccc4[nH]ncc4c3Cl)n2)cc1NC(=O)c1ccnn1C` [IV-106] the same measures were above 30 µM, above 30 µM and above 10 µM.
Turning to `O=C(NC(CO)CO)c1cc(-c2nsc(Nc3ccc4[nH]ncc4c3Cl)n2)ccc1F` [IV-21], the IC50 was below 1 µM in assay [1] (isolated enzyme assay), below 1 µM in assay [2] (isolated enzyme assay) and 1 to 15 µM at ROCK2 (class symbols).
In the case of `COc1cccc(C(=O)Nc2cc(-c3nsc(Nc4ccc5[nH]ncc5c4Cl)n3)ccn2)c1` [IV-64], the IC50 in assay [1] (isolated enzyme assay) was above 30 µM; in assay [2] (isolated enzyme assay), above 30 µM; at ROCK2 (class symbols) it was below 1 µM.
Take `Cn1nc(C(=O)Nc2cccc(-c3nsc(Nc4ccc5[nH]ncc5c4Cl)n3)c2)cc1C(F)(F)F` [Compound A-13]: the IC50 (in assay [1] (isolated enzyme); in assay [2] (isolated enzyme); on ROCK2 (setting [3])) was below 1 µM each time.
Consider `COc1ccc(C(=O)Nc2cc(C)nc(-c3nsc(Nc4ccc5[nH]ncc5c4Cl)n3)c2)cc1` [IV-43], for which the IC50 is above 30 µM in assay [1] (isolated enzyme assay), above 30 µM in assay [2] (isolated enzyme assay) and 1 to 15 µM on ROCK2 (class symbols).
Take `O=C(Nc1cncc(-c2nsc(Nc3ccc4[nH]ncc4c3Cl)n2)c1)c1cnco1` [IV-24]: the IC50 in assay [1] (isolated enzyme assay) is above 30 µM; in assay [2] (isolated enzyme assay) it was below 1 µM; on ROCK2 (numeric bound), above 10 µM.
Consider `Cc1nn(C)cc1C(=O)Nc1cccc(-c2nsc(Nc3ccc4[nH]ncc4c3Cl)n2)c1` [Compound A-15], for which the IC50 (in assay [1] (isolated enzyme); in assay [2] (isolated enzyme); at ROCK2 (setting [3])) was below 1 µM each time.
